Change in vivo data for two molecules are collected here from patent US4109008A, “Hydrazine derivatives useful as anti-hypertensives” (Hexachimie, priority 1976, dated 1978).

The experiment relates to male rats exhibiting a spontaneous genetically transmissible hypertension. Kind of experiment: Systolic arterial pressure and rate of heartbeat in spontaneously hypertensive rats after intraperitoneal administration. The format is in vivo. Conditions: Rattus norvegicus, ip, 0.5 h, 40 mg/kg given intraperitoneally, T + 30 mins, read-out: percentage variation and mean deviation of the systolic arterial pressure, T + 30 mins. How it is done:
The arterial pressure is measured by a "Narco Bio System" sphygmomanometer. A sleeve is placed over the base of the tail and a detector records the pulse downstream from the sleeve. The sleeve is then inflated until the pulse is stopped, thus indicating the systolic pressure. The rate of heartbeat is also recorded. The products to be studied are converted to a suspension by means of "Tween 80" and administered intraperitoneally in a volume of 1 cm^3 per 100 grams of body weight. The measurements are repeated at regular intervals.

Take `Cn1c(=O)n(C)c2cc(C=NNC3=NCCN3)ccc21` [Example 12, N-(1,3-Dimethyl-2-Oxo-5-Benzimidazolylidene)-N'-Imidazolino-Hydrazine]: the change in vivo at 40 mg/kg was -39 ± 7.4%. As for `C#CCOc1ccccc1C=NNC(=N)N` [Example 1, N-[o-(Prop-2-Y-noxy)-Benzylidene]-N'-Amidino-Hydrazine], the change in vivo at 40 mg/kg is -52 ± 3.4%.
